# Assay results: patent publication US11708326B2, “Immunomodulator compounds” (CHEMOCENTRYX, INC., priority 2017, dated 2023)
# Molecular target: human PD-L1 / Human PD-1 (Homo sapiens (Human), UniProt Q9NZQ7)
# Test: Enzyme-Linked Immunosorbent Assay (ELISA), human PD-1 binding to plate-coated human PD-L1
# Settings: PD-1/PD-L1 ELISA, absorbance at 450 nm
# Protocol: Biological Example: Enzyme-Linked Immunosorbent Assay—ELISA
# 96 Well plates were coated with 1 μg/mL of human PD-L1 (obtained from R&D) in PBS overnight at 4° C. The wells were then blocked with 2% BSA in PBS (W/V) with 0.05% TWEEN-20 for 1 hour at 37° C. The plates were washed 3 times with PBS/0.05% TWEEN-20 and the compounds were serial diluted (1:5) in dilution medium and added to the ELISA plates. Human PD-1 and biotin 0.3 μg/mL (ACRO Biosystems) were added and incubated for 1 hour at 37° C. then washed 3 times with PBS/0.05% TWEEN-20. A second block was performed with 2% BSA in PBS (W/V)/0.05% TWEEN-20 for 10 min at 37° C. and was washed 3 times with PBS/0.05% TWEEN-20. Streptavidin-HRP was added for 1 hour at 37° C. then washed 3 times with PBS/0.05% TWEEN-20. TMB substrate was added and reacted for 20 min at 37° C. A stop solution (2 N aqueous H2SO4) was added. The absorbance was read at 450 nm using a micro-plate spectrophotometer.
# Chain of human PD-L1 / Human PD-1 (Q9NZQ7 19-239): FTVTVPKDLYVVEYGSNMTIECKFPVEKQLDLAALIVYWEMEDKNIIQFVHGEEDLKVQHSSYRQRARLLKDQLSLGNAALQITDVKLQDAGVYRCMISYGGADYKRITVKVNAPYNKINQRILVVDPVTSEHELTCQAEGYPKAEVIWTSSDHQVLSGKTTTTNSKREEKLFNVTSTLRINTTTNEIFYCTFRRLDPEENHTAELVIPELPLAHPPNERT
row,IC50,SMILES
1,5 to 500 nM,CCOc1cc(NC2CCc3c(-c4cccc(OCCCN5CCCC5(C)C)c4C)cccc32)c(Cl)cc1CNC[C@@H]1CCC(=O)N1 (stereo partly shown)
2,≤ 5 nM,Cc1c(OCCCN2CCC(O)CC2)cccc1-c1cccc2c1CC[C@@H]2Oc1cc(OCc2cncc(C#N)c2)c(CN[C@@](C)(CO)C(=O)O)cc1Cl
3,≤ 5 nM,Cc1c(OCCCN2CCC(O)CC2)cccc1-c1cccc2c1CC[C@@H]2Oc1cc(OCCCN2CC[C@@H](O)C2)c(CN[C@@H]2CCCC[C@@H]2O)cc1Cl
4,5 to 500 nM,COc1cc(OC2CCc3c(-c4cccc(OCCCN5CC(O)C5)c4Cl)cccc32)cc(OC)c1CN[C@@](C)(CO)C(=O)O (stereo partly shown)
5,5 to 500 nM,CCOc1cc(O[C@@H]2c3cccc(-c4cccc(OCCCN5CCC(C)(F)CC5)c4C)c3C[C@@H]2F)c(Cl)cc1CNC(C(=O)NS(C)(=O)=O)[C@@H](C)O (stereo partly shown)
6,≤ 5 nM,C[C@@](CO)(NCc1cc(Cl)c(OC2CCc3c(-c4cccc(OCCCN5CC(O)C5)c4Cl)cc(F)cc32)cc1OCc1cncc(C#N)c1)C(=O)O (stereo partly shown)
7,5 to 500 nM,Cc1c(OCCCN2CCC(F)CC2)cccc1-c1cc(F)cc2c1CCC2Oc1cc(OCc2cc(C#N)cc(C#N)c2)c(CN[C@H]2CCC(=O)NC2)cc1Cl (stereo partly shown)
8,5 to 500 nM,CCOc1cc(NC2CCc3c(-c4cccc(OCCCN5CCC(C)(F)CC5)c4C)cccc32)c(Cl)cc1CNC[C@@H]1CCC(=O)N1 (stereo partly shown)
9,5 to 500 nM,N#Cc1cncc(COc2cc(O[C@H]3CCc4c(-c5cccc(OCCCn6ccnc6)c5Cl)cccc43)c(Cl)cc2CN[C@@H]2CCCC[C@@H]2O)c1
10,5 to 500 nM,N#Cc1cncc(COc2cc(O[C@H]3CCc4c(-c5cccc(OCCCN6CCC(F)CC6)c5Cl)cccc43)c(Cl)cc2CN[C@@H]2CCCC[C@H]2F)c1
